Legend:
PDK1 [1] = assay: PDK1 assay: activation of GST-PKBα by purified PDK1 with phospholipid vesicles; format: biochemical, rabbit; conditions: for activation of PDK1 (in words) / fold-activation of GST-PKBα (PDK1 activity): lipid 10 μM in vesicles of 100 μM PtdCho, 100 μM PtdSer, 30 min at 30° C.; for order of level of activation of the 3-phosphoinositide-dependent kinase (most effective first): rabbit skeletal muscle PDK1, FIG. 6
Method: (§1) Assay of PDK1. The assay was carried out in two stages; in the first, GST-PKBα was incubated with PDK1 in the presence of MgATP and phospholipid vesicles to permit activation of GST-PKBα.
(§2) After 10 min at 30° C., the reactions were terminated by spotting the reaction mixture on to p81 phosphocellulose paper. The papers were washed in phosphoric acid and analysed as described previously. […] The basal GST-PKBα activity is the activity measured in the absence of PDK1.

GST-ΔPH-PDK1 = target: T1, GST-ΔPH-PDK1 (Homo sapiens, UniProt O15530); assay: GST-ΔPH-PDK1 assay: activation of GST-PKBα; format: biochemical; conditions: lipid 10 μM in PtdCho/PtdSer vesicles
T1 construct: expressed as a GST-fusion protein in 293 cells (GST-ΔPH-PDK1, residues 1-450); made in house; host or cells: human embryonic kidney 293 cells (pEBG-2T)
Method: FIG. 15. Role of the PH domains of PKBα and PDK1. […] The assays were terminated by making the incubations 1% (by vol) in Triton X-100 as in Example 1, and the increase in specific activity of GST-PKBα was determined. The basal activity of GST-PKBα was 2.5 U/mg and that of GST-ΔPH-PKBα was 8 U/mg. At the high concentration of GST-PDK1 used in this assay the rate of activation of full length wild type GST-PKBα is not linear with time whereas the activation of GST-ΔPH-PKBα is linear. When the experiments are carried out at 20-fold lower concentrations of GST-PDK1 a similar extent of activation of wild-type GST-PKBα is achieved as that shown in the figure for GST-ΔPH-PKBα by 2.3 nM GST-PDK1. (B) as in (A) except that 0.5 μg of GST-PKBα was incubated with 2.5 nM […] in the presence of phospholipid vesicles containing 100 μM PtdCho, 100 μM PtdSer and 10 μM of either, sn-1-stearoyl-2-arachidonyl-D-PtdIns(3,4,5)P3 (Track 1); sn-1-stearoyl-2-arachidonyl-L-PtdIns(3,4,5)P3 (Track 2), sn-1,2 di-palmitoyl-D-PtdIns(3,4,5)P3 (Track 3), sn-1,2 di-palmitoyl-D-PtdIns(3,4,5)P3 (Track 4), PtdIns(4,5)P2 (purified from Folch brain fraction Track 5) and sn-1,2 di-palmitoyl-D-PtdIns-3P (Track 6). The results are presented as the increase in the specific activity of GST-PKBα (U/mg), (±SEM for 6-9 determinations, three independent experiments), relative to a control incubation in which GST-PDK1 is omitted.
Assay of GST-PDK1 and GST-DSTPK61 activity. GST-PDK1 and GST-DSTPK61 were diluted appropriately in Buffer B containing 1 mg/ml bovine serum albumin, and assayed for their ability to activate and phosphorylate GST-PKBα [21]. One unit of PDK1 activity was defined as that amount required to increase the basal activity of GST-PKBα by 1 unit of activity in one min. One unit of GST-PKBα activity was that amount of enzyme required to catalyse the phosphorylation of 1 nmol of the peptide RPRAATF (SEQ ID NO: 9) in 1 min in an assay containing 0.1 mM RPRAATF (SEQ ID NO: 9)). […]

GST-DSTPK61 = target: T2, GST-DSTPK61 (Drosophila melanogaster, UniProt Q9W0V1); assay: GST-DSTPK61 assay: activation and phosphorylation of GST-PKBα; format: biochemical; conditions: lipid 10 μM in PtdCho/PtdSer vesicles
T2 construct: residues 1-752 of DSTPK61 in E. coli as fusion proteins; made in house; host or cells: E. coli (pGEX-3X)
Method: (§3) FIG. 12. […] In panels A and C, the assays were terminated by making the incubations 1% (by vol) in TRITON X-100™ (see Ref 21), and the increase in specific activity of GST-PKBα was determined. In panels B and D, the reactions were terminated by making the solutions 1% in SDS, the samples were subjected to SDS/polyacrylamide gel electrophoresis, and the phosphorylation was assessed by autoradiography of the Coomassie blue-stained band corresponding to GST-PKBα.
(§4) One unit of PDK1 activity was defined as that amount required to increase the basal activity of GST-PKBα by 1 unit of activity in one min.

GST-PDK1 = target: T3, GST-PDK1 (Homo sapiens, UniProt O15530); assay: GST-PDK1 assay: activation and phosphorylation of GST-PKBα; format: biochemical; conditions: for activation and phosphorylation of GST-PKBα by GST-PDK1 (in words): lipid 10 μM in PtdCho/PtdSer vesicles
T3 construct: Residues 52-556 of PDK1 were expressed in human embryonic kidney 293 cells; made in house; host or cells: human embryonic kidney 293 cells (pEBG2T)
T3 sequence (O15530 52-556): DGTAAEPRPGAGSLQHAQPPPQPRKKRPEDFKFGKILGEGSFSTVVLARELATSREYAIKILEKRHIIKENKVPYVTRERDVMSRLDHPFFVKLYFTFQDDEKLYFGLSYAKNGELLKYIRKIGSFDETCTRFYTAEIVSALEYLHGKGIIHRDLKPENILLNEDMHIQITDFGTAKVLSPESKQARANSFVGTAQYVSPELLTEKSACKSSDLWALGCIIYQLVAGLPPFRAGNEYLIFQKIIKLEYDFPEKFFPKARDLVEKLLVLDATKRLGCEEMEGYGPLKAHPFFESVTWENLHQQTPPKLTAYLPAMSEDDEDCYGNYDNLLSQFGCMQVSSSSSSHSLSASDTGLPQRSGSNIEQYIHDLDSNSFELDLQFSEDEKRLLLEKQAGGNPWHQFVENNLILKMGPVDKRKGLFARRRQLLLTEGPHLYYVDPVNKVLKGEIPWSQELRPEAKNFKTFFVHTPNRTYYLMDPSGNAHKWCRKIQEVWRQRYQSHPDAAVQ
Method: as §3, §4

PDK1 [2] = assay: Phosphorylation of GST-PKBα by PDK1 with [γ32P]ATP; format: biochemical, rabbit; conditions: lipid 10 μM in PtdCho/PtdSer vesicles
Method: Solutions were stored at 4° C. at concentrations 10-fold higher than those required in the assay and used within 2-4 days.
Phosphorylation of GST-PKB ? by PDK1. The incubations were identical to the Stage 1 described above except that [γ^32P] ATP (200-400 cpm/pmol) was used instead of unlabelled ATP. The reactions were terminated by making the solution 1% (by mass) in SDS. […] The Coomassie blue-staining bands corresponding to GST-PKBα were excised and the ^32P-radioactivity associated with each band was quantified.

PKB = PKB (Homo sapiens, UniProt P31749); conditions: cited from earlier work
GST-PKBα [3] = assay: Activation of GST-PKBα after stimulation of transfected 293 cells; format: cell-based, human; conditions: versus unstimulated 293 cells
From the text: Expression of GST-PKBα in 293 cells. The DNA sequence encoding PKBα was subcloned into the eukaryotic expression vector PEBG2T that has been used to overexpress GST-fusion proteins in eukaryotic cells under an EF1α promoter. A PCR reaction was set up to generate a full length cDNA encoding the PKBα gene with a BamH1site at the 5′ end of the cDNA that is in frame with the GST sequence of the PEBG2T vector and the ATG initiation codon of PKBα, and a KpnI site at the 3′ end, using the human PCMV5-HA-PKBα plasmid. The DNA sequence of the BamH1/KpnI cDNA fragment was checked and then subcloned into the unique BamH1/KpnI restriction sites on the pEBG 2T expression vector. In order to prepare GST-PKBα, 40, 10 cm diameter dishes of human embryonic kidney 293 cells were cultured and each dish transfected with 20 μg of GST PKBα expression construct using the modified calcium phosphate method described previously for overexpression of haemaglutinin tagged PKBα in 293 cells. […]

GST-PKBα [4] = target: T4, GST-PKBα (Homo sapiens, UniProt P31749); assay: GST-PKBα activity and phosphorylation with lipids in the absence of PDK1; format: biochemical; conditions: same conditions as PDK1 activation
T4 construct: generate a full length cDNA encoding the PKBα gene; made in house; host or cells: human embryonic kidney 293 cells (pEBG2T), serum starved
Method: as §1, §2

T1 sequence (P31749 whole entry partner, the tested form may be a part): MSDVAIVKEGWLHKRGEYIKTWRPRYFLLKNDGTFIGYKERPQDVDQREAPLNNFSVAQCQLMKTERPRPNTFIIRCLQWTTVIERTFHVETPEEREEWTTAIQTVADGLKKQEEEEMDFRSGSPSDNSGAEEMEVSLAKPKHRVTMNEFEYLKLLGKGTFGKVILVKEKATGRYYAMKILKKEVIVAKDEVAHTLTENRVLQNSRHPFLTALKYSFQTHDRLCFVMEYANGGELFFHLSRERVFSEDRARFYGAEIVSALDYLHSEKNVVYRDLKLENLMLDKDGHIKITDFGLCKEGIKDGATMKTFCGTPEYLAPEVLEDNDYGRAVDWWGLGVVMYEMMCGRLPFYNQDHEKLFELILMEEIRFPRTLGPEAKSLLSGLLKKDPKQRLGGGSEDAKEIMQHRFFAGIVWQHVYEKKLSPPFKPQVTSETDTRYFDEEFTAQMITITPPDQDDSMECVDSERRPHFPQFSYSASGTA
T1 sequence (O15530 1-450, stated change not applied): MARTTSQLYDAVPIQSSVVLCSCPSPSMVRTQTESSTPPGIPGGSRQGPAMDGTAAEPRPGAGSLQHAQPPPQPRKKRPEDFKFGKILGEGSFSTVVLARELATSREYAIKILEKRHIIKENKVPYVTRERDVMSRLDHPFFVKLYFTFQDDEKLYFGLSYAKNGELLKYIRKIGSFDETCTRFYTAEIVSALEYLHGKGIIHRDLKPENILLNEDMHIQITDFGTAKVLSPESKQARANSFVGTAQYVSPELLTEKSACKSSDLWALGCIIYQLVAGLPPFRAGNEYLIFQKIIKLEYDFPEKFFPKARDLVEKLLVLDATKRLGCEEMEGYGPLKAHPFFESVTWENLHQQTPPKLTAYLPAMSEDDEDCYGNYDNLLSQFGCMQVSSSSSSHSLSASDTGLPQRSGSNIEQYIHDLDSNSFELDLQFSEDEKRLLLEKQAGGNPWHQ
T2 sequence (Q9W0V1 85-836 Q200H/Q201E/Q317A/G443R): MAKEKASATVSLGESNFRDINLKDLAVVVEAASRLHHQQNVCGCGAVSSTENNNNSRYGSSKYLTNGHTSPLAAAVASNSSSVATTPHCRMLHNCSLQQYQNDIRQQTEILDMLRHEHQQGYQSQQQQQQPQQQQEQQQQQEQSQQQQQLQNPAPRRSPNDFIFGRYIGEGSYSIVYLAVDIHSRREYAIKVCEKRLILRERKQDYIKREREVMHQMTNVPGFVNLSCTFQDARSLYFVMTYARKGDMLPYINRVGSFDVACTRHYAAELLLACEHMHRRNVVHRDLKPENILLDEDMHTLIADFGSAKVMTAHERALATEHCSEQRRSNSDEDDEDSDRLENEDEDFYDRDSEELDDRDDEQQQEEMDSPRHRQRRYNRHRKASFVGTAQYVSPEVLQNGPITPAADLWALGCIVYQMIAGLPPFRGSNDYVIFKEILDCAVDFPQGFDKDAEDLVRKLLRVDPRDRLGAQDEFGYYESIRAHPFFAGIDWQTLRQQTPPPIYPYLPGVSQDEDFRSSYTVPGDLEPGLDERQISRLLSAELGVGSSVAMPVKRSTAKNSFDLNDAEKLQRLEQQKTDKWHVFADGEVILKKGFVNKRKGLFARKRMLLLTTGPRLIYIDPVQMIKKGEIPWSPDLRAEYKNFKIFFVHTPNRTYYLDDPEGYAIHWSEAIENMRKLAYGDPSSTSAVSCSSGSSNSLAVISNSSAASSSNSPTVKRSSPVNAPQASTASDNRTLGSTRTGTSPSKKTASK
PKB, sequence (P31749 whole entry, species assumed): as the sequence (P31749 whole entry partner, the tested form may be a part) above
T4 sequence (P31749 whole entry): as the sequence (P31749 whole entry partner, the tested form may be a part) above

activation of GST-PKBα by GST-ΔPH-PDK1 (in words) (GST-ΔPH-PDK1) | order of level of activation of the 3-phosphoinositide-dependent kinase (most effective first) (PDK1 [1]) | Molecule | activation of PDK1 (in words) (PDK1 [1]) | fold-activation of GST-PKBα (PDK1 activity) (PDK1 [1]) | activation and phosphorylation of GST-PKBα by GST-DSTPK61 (in words) (GST-DSTPK61) | activation and phosphorylation of GST-PKBα by GST-PDK1 (in words) (GST-PDK1) | other results
activated more effectively |  | CCCCC/C=C\C/C=C\C/C=C\C/C=C\CCCC(=O)O[C@H](COC(=O)CCCCCCCCCCCCCCCCC)COP(=O)(O)O[C@H]1[C@H](O)[C@@H](OP(=O)(O)O)[C@H](OP(=O)(O)O)[C@@H](OP(=O)(O)O)[C@H]1O [Lipid 1, sn-1-stearoyl, 2-arachidonyl D-phosphatidylinositol 3,4,5-trisphosphate] | potently activated PDK1 | 13 fold |  |  | 
 |  | PtdIns(4,5)P2 [Lipid 9] | no significant activation |  | no activation or phosphorylation | no activation or phosphorylation | activation of PDK1 (in words) (PDK1 [1]; listed as PtdIns(4,5)P2): did not activate PDK1 at all; activation of PDK1 (in words) (PDK1 [1]; listed as lipid 9): did not activate PDK1; phosphorylation of GST-PKBα by PDK1 (in words) (PDK1 [2]): did not activate PDK1 or induce the phosphorylation; fold lower affinity of PKB than for PtdIns(3,4,5)P3 or PtdIns(3,4)P2 (PKB): 10 fold
 |  | insulin: insulin used to stimulate 293 cells |  |  |  |  | fold activation of GST-PKBα after stimulation of 293 cells (GST-PKBα [3]): 20 fold
no activation | 2 | CCCCC/C=C\C/C=C\C/C=C\C/C=C\CCCC(=O)OC(COC(=O)CCCCCCCCCCCCCCCCC)COP(=O)(O)OC1C(O)C(OP(=O)(O)O)C(OP(=O)(O)O)C(OP(=O)(O)O)C1O (single isomer, unassigned) [Lipid 2, L-enantiomer of sn-1-stearoyl-2-arachidonyl PtdIns(3,4,5)P3] | no significant activation |  |  |  | fold-activation of GST-PKBα (PDK1 activity) (PDK1 [1]; 2-arachidonyl PtdIns(3,4,5)P3): 1.7 fold; activation of PDK1 (in words) (PDK1 [1]; listed as L-enantiomer of sn-1-stearoyl-2-arachidonyl PtdIns(3,4,5)P3): almost ineffective
 |  | Phosphatidylinositol 3,4-bisphosphate [PtdIns(3,4)P2] | only active in the presence of low micromolar concentrations |  | activated and phosphorylated GST-PKBα | activated and phosphorylated GST-PKBα | fold enhancement of PDK1 activity in the presence of the inositol phospholipid (GST-PDK1; versus absence of PtdIns(3,4,5)P3 or PtdIns(3,4)P2): about 1000 fold; affinity of binding to PKB (in words) (PKB; via the N-terminal PH domain): micromolar affinity; activation, inhibition or phosphorylation of GST-PKBα in the absence of PDK1 (GST-PKBα [4]): no effect
very poor | 4 | CCCCCCCCCCCCCCCC(=O)OCC(COP(=O)(O)OC1C(O)C(O)C(OP(=O)(O)O)C(OP(=O)(O)O)C1O)OC(=O)CCCCCCCCCCCCCCC (stereo not shown) [Lipid 7, sn-1,2 di-palmitoyl PtdIns(3,4)P2] | as effective as sn-1,2-dipalmitoyl D-PtdIns(3,4,5)P3 | about 6 fold |  | as effective as sn-1,2-dipalmitoyl D-PtdIns(3,4,5)P3 | fold less effective in activating PDK1 than the sn-1-stearoyl-2-arachidonyl and sn-2-arachidonyl-3-stearoyl derivatives (PDK1 [1]): ~3 fold
